{
  "source": "PubChem BioAssay AID1963845",
  "about": "(Molecular Pharmacology Branch, DTP, NCI, 2024)",
  "system": "429239-143-T-J1-PDC complex spheroid viability",
  "assay": "Anticancer human tumor 429239-143-T-J1-PDC patient-derived small cell lung carcinoma cell line growth inhibition [POLQ]",
  "conditions": "for pIC50: curve of first compound; for viability, T/C: stronger effect = lower value",
  "method_in_brief": "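PDC + HUVEC + MSC complex spheroids; POLQ inhibitors ± partner drugs; top conc. at/near clinical Cmax, else 10 microM (SN-38 1 microM), half-log dilutions; 37 degrees C, 5% CO2.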",
  "note": "pIC50: −log10 of the molar value.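 Note: luminescence signal used as surrogate measure of viable cells; spheroids exposed to compounds for seven days before readout.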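 Throughout, for viability, T/C: 100% = DMSO vehicle control viability as luminescence relative to vehicle.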",
  "data": [
    {"smiles": "COc1cccc(OCCCN)c1-c1cc(Nc2cnc(C#N)cn2)n[nH]1", "note": "+ Cc1cccc(N(C)C(=O)C2C(O)CCN2c2nc(C)cc(C(F)(F)F)c2C#N)c1", "values": [
      {"measurement": "pIC50", "setting": "second compound 0.0316 µM", "value": 6.42},
      {"measurement": "pIC50", "setting": "second compound 0.1 µM", "value": 6.47},
      {"measurement": "pIC50", "setting": "second compound 0.316 µM", "value": 6.61},
      {"measurement": "pIC50", "setting": "second compound 1 µM", "value": 6.59},
      {"measurement": "pIC50", "setting": "second compound 3.16 µM", "value": 6.56},
      {"measurement": "pIC50", "setting": "second compound 10 µM", "value": 6.64},
      {"measurement": "viability, T/C", "setting": "second compound 0.0316 µM, first compound 0.00316 µM", "value": 101, "unit": "%"},
      {"measurement": "viability, T/C", "setting": "second compound 0.0316 µM, first compound 0.01 µM", "value": 110, "unit": "%"},
      {"measurement": "viability, T/C", "setting": "second compound 0.0316 µM, first compound 0.0316 µM", "value": 87.7, "unit": "%"},
      {"measurement": "viability, T/C", "setting": "second compound 0.0316 µM, first compound 0.1 µM", "value": 73.1, "unit": "%"},
      {"measurement": "viability, T/C", "setting": "second compound 0.0316 µM, first compound 0.316 µM", "value": 52.7, "unit": "%"},
      {"measurement": "viability, T/C", "setting": "second compound 0.0316 µM, first compound 1 µM", "value": 39.3, "unit": "%"},
      {"measurement": "viability, T/C", "setting": "second compound 0.1 µM, first compound 0.00316 µM", "value": 101, "unit": "%"},
      {"measurement": "viability, T/C", "setting": "second compound 0.1 µM, first compound 0.01 µM", "value": 106, "unit": "%"},
      {"measurement": "viability, T/C", "setting": "second compound 0.1 µM, first compound 0.0316 µM", "value": 92.9, "unit": "%"},
      {"measurement": "viability, T/C", "setting": "second compound 0.1 µM, first compound 0.1 µM", "value": 72, "unit": "%"},
      {"measurement": "viability, T/C", "setting": "second compound 0.1 µM, first compound 0.316 µM", "value": 52.7, "unit": "%"},
      {"measurement": "viability, T/C", "setting": "second compound 0.1 µM, first compound 1 µM", "value": 36.7, "unit": "%"},
      {"measurement": "viability, T/C", "setting": "second compound 0.316 µM, first compound 0.00316 µM", "value": 106, "unit": "%"},
      {"measurement": "viability, T/C", "setting": "second compound 0.316 µM, first compound 0.01 µM", "value": 108, "unit": "%"},
      {"measurement": "viability, T/C", "setting": "second compound 0.316 µM, first compound 0.0316 µM", "value": 86.4, "unit": "%"},
      {"measurement": "viability, T/C", "setting": "second compound 0.316 µM, first compound 0.1 µM", "value": 67.2, "unit": "%"},
      {"measurement": "viability, T/C", "setting": "second compound 0.316 µM, first compound 0.316 µM", "value": 46.6, "unit": "%"},
      {"measurement": "viability, T/C", "setting": "second compound 0.316 µM, first compound 1 µM", "value": 32, "unit": "%"},
      {"measurement": "viability, T/C", "setting": "second compound 1 µM, first compound 0.00316 µM", "value": 108, "unit": "%"},
      {"measurement": "viability, T/C", "setting": "second compound 1 µM, first compound 0.01 µM", "value": 105, "unit": "%"},
      {"measurement": "viability, T/C", "setting": "second compound 1 µM, first compound 0.0316 µM", "value": 90.8, "unit": "%"},
      {"measurement": "viability, T/C", "setting": "second compound 1 µM, first compound 0.1 µM", "value": 68.1, "unit": "%"},
      {"measurement": "viability, T/C", "setting": "second compound 1 µM, first compound 0.316 µM", "value": 46.5, "unit": "%"},
      {"measurement": "viability, T/C", "setting": "second compound 1 µM, first compound 1 µM", "value": 33.1, "unit": "%"},
      {"measurement": "viability, T/C", "setting": "second compound 3.16 µM, first compound 0.00316 µM", "value": 117, "unit": "%"},
      {"measurement": "viability, T/C", "setting": "second compound 3.16 µM, first compound 0.01 µM", "value": 108, "unit": "%"},
      {"measurement": "viability, T/C", "setting": "second compound 3.16 µM, first compound 0.0316 µM", "value": 93.8, "unit": "%"},
      {"measurement": "viability, T/C", "setting": "second compound 3.16 µM, first compound 0.1 µM", "value": 65.4, "unit": "%"},
      {"measurement": "viability, T/C", "setting": "second compound 3.16 µM, first compound 0.316 µM", "value": 49.8, "unit": "%"},
      {"measurement": "viability, T/C", "setting": "second compound 3.16 µM, first compound 1 µM", "value": 34.9, "unit": "%"},
      {"measurement": "viability, T/C", "setting": "second compound 10 µM, first compound 0.00316 µM", "value": 118, "unit": "%"},
      {"measurement": "viability, T/C", "setting": "second compound 10 µM, first compound 0.01 µM", "value": 92.1, "unit": "%"},
      {"measurement": "viability, T/C", "setting": "second compound 10 µM, first compound 0.0316 µM", "value": 92.1, "unit": "%"},
      {"measurement": "viability, T/C", "setting": "second compound 10 µM, first compound 0.1 µM", "value": 66.4, "unit": "%"},
      {"measurement": "viability, T/C", "setting": "second compound 10 µM, first compound 0.316 µM", "value": 39.3, "unit": "%"},
      {"measurement": "viability, T/C", "setting": "second compound 10 µM, first compound 1 µM", "value": 27.7, "unit": "%"}
    ]}
  ]
}
